Test results taken from patent US20110294992A1, “METAL RESPONSIVE MRI-AGENTS” (The Regents of the University of California, priority 2010, published 2011).
Marks after values point to notes of the source that are not given here.

Columns and labels:
[1] = Electrochemical Cu2+/Cu+ reduction potentials of copper-bound CG complexes; type: physicochemical; conditions: PBS buffer, pH 7.4
Description: CG6 is a unique member of the CG family that is equally responsive to both Cu^+ and Cu^2+. Addition of either Cu^+ or Cu^2+ to CG6 triggers a maximum 73% relaxivity turn-on from r1=2.2 mM^−1s^−1 to r1=3.8 mM^−1s^−1. […] On the other hand, copper-bound CG6, which responds to both Cu^+ and Cu^2+, has the least positive Cu^2+/Cu^+ reduction potential at +0.13 V.

[2] = Relaxivity response to 1 equiv Cu+ in the presence of biologically relevant anions; type: physicochemical; conditions: for increase in r1 in response to Cu^+ / turn-on response to Cu^+: pH 7
Description: FIG. 7. Relaxivity responses of CG2 to 1 equiv Cu^+ in the presence of biologically relevant anions. White bars represent CG2 relaxivities without Cu^+ in the presence of various anions. Black bars represent CG2 relaxivities with Cu^+ in the presence of different anions. Percentages in the black bars are the % increases r1. Relaxivity measurements with HEPES, citrate (0.13 mM), lactate (2.3 mM), and HCO3^− (10 mM, 25 mM), were acquired at 37° C. in 20 mM HEPES buffer, pH 7, at a proton Larmor frequency of 60 MHz. Relaxivity measurements with PBS were acquired under similar conditions using phosphate buffered saline, pH 7.4.
We also tested the copper responses of CG2-6 in the presence of physiologically relevant concentrations of common biological anions (FIG. 7). […] Carboxylate-type anions, however, can affect relaxivity responses of Cu^+-bound CG2. Addition of citrate (0.13 mM) and lactate (2.3 mM) to CG2 results in turn-on responses to Cu^+ of 220% and 71% respectively. Carbonate concentrations also affect the response of CG2; the effect of carbonate was tested at 10 mM NaHCO3 (intracellular)^104 and 25 mM NaHCO3 (extracellular)^108 and gave increases in r1 in response to Cu^+ of 190% and 140% respectively. Although the relaxivity increases observed in the presence of anions are still well within a range detectable by MRI,^109 current work is geared toward developing CG-sensors with more carboxylate functionalities incorporated into the ligand framework to minimize anion sensitivity.^55,110

[3] = Kinetic stability to metal ion exchange monitored by LC/MS; type: physicochemical; conditions: 1 equiv of Cu^2+
[4] = Nuclear magnetic relaxation dispersion (NMRD) profiles, Solomon-Bloembergen-Morgan fit; type: physicochemical; conditions: copper free
Description: FIG. 9. ^1H Nuclear magnetic relaxation dispersion profiles of CG3 and CG3+Cu^+ acquired at 25° C. The solid lines represent the best fit profiles.
As a secondary, independent set of experiments to further probe the mechanisms of copper ion sensing by the CG contrast agents, we also performed nuclear magnetic relaxation dispersion (NMRD) measurements of these sensors in the absence and in the presence of copper ions using a field cycling relaxometer (FIG. 9). The profiles obtained were analyzed following Solomon-Bloembergen-Morgan theory^36-38 for the inner-sphere relaxivity and the Freed model^115 for the outer-sphere relaxivity, fixing the diffusion coefficient (D) at […], the distance between Gd^3+ and the inner sphere water protons (r) at 3.1 Å, and the inner sphere exchange lifetime (τM) at 160 ns, the reported value for the parent complex Gd^3+-DO3A. Profiles were obtained for all compounds in the copper-free state. Profiles in the presence of Cu^n+ were obtained for CG2-4 (Cu^+) and CG6 (Cu^2+).
In fact, the measured outer-sphere relaxivities were so low that, in order to obtain a reasonable fit, the distance of closest approach of outer-sphere water protons (a) was allowed to vary. The distances obtained for the CG complexes (4.2-4.8 Å) were markedly longer than what is observed for typical Gd^3+ contrast agents with greater water access (3.8-4 Å). These values correlate with the copper-free relaxivities of CG2-6; longer a values give lower relaxivities and shorter a values give higher relaxivities. For Cu^+-sensing agents CG2-4, the estimated change in q of 2 as determined by DIS measurements was also observed in the fitted NMRD data. In fact, any attempt to fit the observed NMRD profiles with q=1 led to very poor agreement between experimental and calculated values. The change in q of 1 for CG6 upon addition of Cu^2+ as determined by NMRD is consistent with the lower turn-on response observed with this complex compared to CG2-4. The reduced q modulation for CG6 relative to CG2-4 could indicate that the carboxylic acid moiety used for Cu^2+ binding also interacts with the Gd^3+ center in the Cu^2+-bound state. The fitted rotational correlation times (τR) for copper-bound CG complexes all fall within the range expected for Gd^3+ complexes with molecular weights of 700-800 D. τR values for copper-free CG2-6 were fixed to values close to their copper-bound analogues as fits of NMRD data for q=0 complexes are not sensitive to small changes in τR. The values of Δ^2 (average quadratic transient zero field splitting), τv (electronic correlation time), and τs0 (electronic relaxation time at zero field), which govern the electronic relaxation time, are relatively similar to each other. These NMRD values are closer to those of Gd^3+-DTPA than Gd^3+-DOTA, reflecting the asymmetry of CG2-6.^64

[5] = T1-weighted phantom magnetic resonance imaging at 1.5 T; conditions: 100 μM sensor with Cu^+ at 0, 10, 25, 50, 75, and 100 μM
Description: FIG. 10. A) T1-weighted phantom images of 100 μM CG2-6 in 20 mM HEPES pH 7 with and without 1 equiv Cu^n+. B) Phantom images of 100 μM CG2-6 with 0, 10, 25, 50, 75, and 100 μM [Cu(NCCH3)4]PF6. Images were acquired at 25° C. at 1.5 T (˜64 MHz proton Larmor frequency).
With spectroscopic data showing the turn-on relaxivity responses, binding properties, metal ion selectivities, and copper-induced changes in q values for this new series of CG contrast agents in hand, we next sought to test the ability of these sensors to detect changes in aqueous Cu^+ and/or Cu^2+ levels using MRI. […] In this context, chelatable copper pools have been identified in the mitochondrial matrix^22 and in the Golgi apparatus.^23 Moreover, the cerebrospinal fluid (CSF) contains micromolar levels of copper ions, most of which is not bound to ceruloplasmin due to the low concentrations of this protein in the CSF,^24,25 which may result in facile exchange between different copper binding ligands.^26

Cu^2+/+ E1/2 [1]: 0.46 V vs. SHE
metal ion exchange (kinetic stability) ([3]; 37° C., after 4 hours): No metal ion exchange was observed
metal ion exchange (kinetic stability) ([3]; room temperature, after 7 days): No metal ion exchange was observed
τs0 (electronic relaxation time at zero field) [4]: 75.6 ps
r1p 20 MHz 25° C. ([4]; 0.5 mM, 20 mM HEPES pH 7): 1.6 mM⁻¹ s⁻¹
a (distance of closest approach of outer-sphere water protons) ([4]; best-fit value): 4.7 ± 0.11 Å
Δ^2 (average quadratic transient zero field splitting) ([4]; best-fit value): 5.8 ± 1.1 10^19 s^−2
τv (electronic correlation time) ([4]; best-fit value): 19 ± 2.4 ps
q ([4]; fixed in the fitting procedure): 0^c
τR (rotational correlation time) ([4]; not experimentally determined, assumed equal to corresponding q ≠ 0 complex (CG5: average of the other complexes)): 110^d ps
Compound: CCSCCN(CCSCC)Cc1cccc(CN2CCN(CC(=O)[O-])CCN(CC(=O)[O-])CCN(CC(=O)[O-])CC2)n1.[Gd+3] [CG2]
increase in r1 in response to Cu^+ ([2]; 10 mM NaHCO3 (intracellular) in 20 mM HEPES): 190%
increase in r1 in response to Cu^+ ([2]; 25 mM NaHCO3 (extracellular) in 20 mM HEPES): 140%
turn-on response to Cu^+ ([2]; citrate (0.13 mM) in 20 mM HEPES, 1 equiv Cu^+): 220%
turn-on response to Cu^+ ([2]; lactate (2.3 mM) in 20 mM HEPES, 1 equiv Cu^+): 71%
increase in relaxivity in response to Cu^+ ([2]; phosphate buffered saline (PBS, 10 mM phosphate), pH 7.4, 1 equiv Cu^+): 350%
visualization of copper level differences in phantom images [5]: can readily visualize differences in copper levels in a biologically relevant μM range
